Data: patent publication US8318664B2, “Unacylated ghrelin fragments as therapeutic agent in the treatment of obesity” (Alize Pharma SAS, priority 2007, dated 2012)
Entries after “also recorded” stand apart in the source; their conditions may differ. No end group written: not given here.

How the values were obtained:
hamster HIT-T15 β-cells = test: MTT cell survival assay in HIT-T15 β-cells; format: cell-based; conditions: for increase of cell survival: serum-free conditions
Description: MTT experiments were also performed in hamster HIT-T15 β-cells, to test the survival effect of UAG (1-28) or its fragments UAG (1-14), UAG (1-18), UAG (1-5) and UAG (17-28) in serum deprived medium, either alone or with IFN-γ/TNF-α/IL-1β. As for the experiments performed on INS-1E β-cells, the peptides were tested at increasing concentrations, ranging from 0.1 nM to 100 nM.
The survival effect of UAG (6-13), UAG (8-13), UAG (8-12), UAG (8-11), UAG (9-12) and UAG (9-11) was assessed in cytokine-treated HIT-T15 β-cells.
The protective effects of peptides UAG (8-13) and UAG (8-12) were found similar to those of UAG (1-14) and UAG (1-18). A peptide made of the inverse sequence of UAG (1-14) and named UAG (14-1), was used as negative control for these experiments (FIG. 5A). […] These effects were however lower than those of UAG (6-13) (FIG. 5B).
UAG fragments with alanine (Ala) substitutions at different amino acid positions (6 to 13) were tested with regards to their survival effects in HIT-T15 hamster β-cells. The cells were cultured in serum deprived medium, either alone or with IFN-γ/TNF-α/IL-1β. The peptides were tested at the concentrations of 1 nM to 100 nM. […] Under treatment with cytokines, where cell survival was reduced by ≈18% with respect to serum starved conditions, all Ala substitutions, except those at positions 10 and 11, completely reversed cell death and brought the survival rate to levels that were even higher than those under serum-free conditions, at both 1 nM and 100 nM concentrations. These effects were similar to those elicited by the original peptide UAG (6-13) (FIG. 11B).
Particularly, the best effect was exerted by Gly 6-UAG (6-13), whereas the lowest was seen using AcSer 6-UAG (6-13), AcSer 6-(D)Pro 7-UAG (6-13) (FIG. 12B).
(§1) Hamster HIT-T15 insulin-secreting β-cells were obtained and cultured as described (Refs. 14, 4). INS-1E rat β-cells were kindly provided by Prof. Claes B. Wollheim (University Medical Center, Geneva, Switzerland) and cultured as described (Refs. 14, 4). Cell culture reagents were from Invitrogen (Milano, Italy). Cytokines were from Biosource (Invitrogen, Italy).
(§2) Cell survival was assessed by 3-[4,5-dimethylthiazol-2-yl]-2,5diphenyltetrazolium bromide (MTT) as described previously (Ref. 4). Cells were seeded on 96-well plates at a density of 5×10^3 cells/well. After treatments, cells were incubated with 1 mg/ml MTT for ≈1 h. The medium was aspirated, and the formazan product solubilized with 100 μl DMSO. Viability was assessed by spectrophotometry at 570 nm absorbance using a 96-well plate reader.

[1] = system: UAG receptor on INS-1E pancreatic β-cells; test: Competition with [125I-Tyr4]-UAG for binding sites on INS-1E membranes; set-up: species or system rat
Description: (§3) The ability of the fragment UAG (6-13) to compete in a concentration-dependent manner with [^125I-Tyr^4]-UAG for HIT-T15 (FIG. 10A) and INS-1E (FIG. 10B) binding sites was assayed. As shown in FIGS. 10A and 10B, unlabelled UAG (1-28) and UAG (6-13) competed with a similar efficacy and in a concentration-dependent fashion with [^125I-Tyr^4]-UAG for such binding sites in both cell lines.
(§4) Membranes from hamster HIT-T15 and rat INS-1E pancreatic β-cells were prepared and assayed for the presence of [^125I-Tyr^4]-UAG binding. The ability of UAG fragments to compete with the radioligand for such binding sites has been evaluated as previously described (Ref. 4). Data are presented as mean±S.E.M. of three independent experiments.

HIT-T15 β-cells [2] = test: Glucose-induced insulin secretion in HIT-T15 β-cells; format: cell-based, hamster; conditions: data not shown
Description: HIT-T15 cells were plated at density of 5×10^5 cells into 100-mm dishes and serum starved for 24 h before incubation for 1 h at 37° C. in HEPES-buffered Krebs-Ringer bicarbonate buffer (KRBH), containing 0.5% BSA with 1.25 mM glucose. The medium was changed and the cells were incubated again for 1 h in KRBH/0.5% BSA containing 1.25, 7.5 or 15 mM glucose. Following acid ethanol extraction of the hormone, secreted insulin was quantitated by a radioimmunoassay kit (Linco Research, Labodia, Yens, Switzerland) which recognizes human insulin and cross reacts with rat insulin.

human pancreatic islets [3] = test: Insulin secretion in human pancreatic islets; format: cell-based; conditions: peptide 100 nM, glucose absent or 2 to 25 mM
Description: The effects of UAG (1-14) and UAG (1-18), both used at 100 nM, were investigated on insulin secretion in human islets. […] UAG (1-28) and Exendin-4 were used as positive controls (FIGS. 8C and 8D).

[4] = system: UAG receptor on HIT-T15 pancreatic β-cells; test: Competition with [125I-Tyr4]-UAG for binding sites on HIT-T15 membranes; set-up: species or system hamster
Description: as §3, §4

INS-1E rat β-cells = test: MTT cell survival assay in INS-1E β-cells; format: cell-based; conditions: 0.1 nM to 100 nM
Description: The peptides were tested at increasing concentrations, ranging from 0.1 nM to 100 nM.
as §1, §2

human pancreatic islets [5] = test: MTT cell survival assay in human pancreatic islets; format: cell-based; conditions: human islet cells, 1 nM to 100 nM
Description: The survival effect of UAG (1-14), UAG (1-18), UAG (1-5) and UAG (17-28), with respect to that of full length UAG (1-28), was assessed in human pancreatic islets by MTT. The peptides were tested in islet cells cultured in serum deprived medium, either alone or with IFN-γ/TNF-α/IL-1β (5 ng/ml each).
Human islets were obtained from pancreases of multiorgan donors as described (Ref. 4). Islet preparations with purity >70%, not suitable for transplantation, were provided by European Consortium for Islet Transplantation (ECIT) “Islets for Research Distribution Program,” Transplant Unit, Scientific Institute San Raffaele, Vita-Salute University, Milan. Islets (10,000) were cultured in CMRL (Invitrogen) with 10% FBS.
as §2

[6] = system: STZ-induced diabetic rats; test: Streptozotocin (STZ)-treated neonatal rats; conditions: for animal survival rate: day 9 after STZ
Description: Pregnant female Sprague-Dawley rats (n=10, day 14th-15th of pregnancy) were purchased from Harlan Srl (Italy), caged allowing free access to water and fed with a standard pellet rat diet. Natural birth occurred 6-7 days later. […] Dams were randomly assigned to the five groups and pups from the same litter were assigned to the same group. […] Pups were left with their mothers. All neonates were tested on day 2 for glycosuria using Accu-chek compact plus (Roche). Only those animals that were glycosuric at day 2 after birth were included in the STZ model group. […] Animals were killed at day 70 after birth by decapitation. Blood samples were collected after decapitation and immediately centrifuged at 20,000×g for 2 min at 4° C., and stored at −20° C. until assayed.
After excision, pancreases were removed and weighed. For insulin content determination, pancreases (35-50 mg) were homogenized and centrifuged in 5 ml acid-ethanol (0.15 mol/l HCl in 75% [vol/vol]ethanol) at 1,000 g for 20 min; the supernatants were stored at −80° C. For immunohistochemistry, additional pancreases were fixed in 4% paraformaldehyde fixative for 24 h and embedded in paraffin.
Plasma glucose levels were determined using a glucose analyzer. Insulin was measured from pancreases or from plasma by RIA as previously described (Ref. 15).

HIT-T15 β-cells [7] = test: Cytokine-induced apoptosis in HIT-T15 β-cells; format: cell-based, hamster
Description: HIT-T15 β-cells were cultured for 24 h in serum-free medium, either alone or with IFN-γ/TNF-α/IL-1β. In both cell lines, apoptosis increased under cytokine treatment, with respect to serum starvation alone. […] UAG (14-1), the inverse sequence of UAG (1-14), was used as negative control, whereas UAG (1-28), was used as positive control in each experiment.

ob/ob mice = test: ob/ob mice, 4 weeks infusion by Alzet pump; format: in vivo, mouse
Description: Baseline tail vein plasma samples were collected from free-fed and 16 h fasted ob/ob mice 7 and 6 days before pump implantation into K2EDTA coated capillary tubes (Microvette CB300 K2E; Sarstedt, Germany). The animals were then separated into three groups with approximately equivalent weight ranges. Ten week old mice were anesthetized, and a filled Alzet 1004 pump was inserted, delivery portal first, into the peritoneal cavity. The musculoperitoneal and skin layers were then closed using interrupted sutures (Vicryl 5.0 FS-2 absorbable suture). Animals received pumps containing either saline, 10 mg/ml UAG, or 3.5 mg/mL UAG (6-13) (n=8 per group). Alzet 1004 pumps deliver […], and infused 30 μg of hUAG/animal/day (˜600 μg/kg/day) and 10 μg of UAG (6-13)/animal/day (˜200 μg/kg/day).
Blood samples (at 0900-1000) were obtained from fed and fasted animals at weeks 2 and 4 via the tail vein into EDTA Microvette tubes. Glucose levels in tail vein blood were measured directly using a glucometer. On the last day of treatment baseline (fasted) blood samples were taken.
For the experimental data illustrated in FIGS. 14A, 14B, 15 and 16, the animals were obtained from Charles River Laboratories (Maastricht, The Netherlands). Animals (B6.V-Lep^ob/J, Charles River Laboratories, Belgian colony) were received in our animal facilities at 8 weeks of age, and acclimatized in individual cages for 2 weeks before treatments began. They were maintained under standard 12:12 h light:dark conditions, 21° C., and were allowed free access to food and water. The animals were also handled daily to accustom them to the method used for blood collection. The peptides were dissolved in sterile, nonpyrogenic, 0.9% saline (Baxter BV, Utrecht, The Netherlands). D-glucose was obtained from Sigma-Aldrich Chemie BV (Zwijndrecht, The Netherlands), and was dissolved at 400 mg/ml in 0.9% saline. Alzet pumps (model 1004) were obtained from Charles River Laboratories (Maastricht, The Netherlands). Pumps were filled with 0.9% saline, UAG or UAG (6-13) solution under sterile conditions, and pre-incubated in 0.9% saline for at least 48 hours at 37° C. to initiate flow. Blood glucose levels were measured directly from tail vein incisions using a Freestyle mini glucometer and test strips (ART05214 Rev.A; Abbot, Amersfoort, The Netherlands). Plasma insulin levels were assayed by Ultra-sensitive mouse insulin ELISA (Cat. #10-1150-10; Mercodia, Sweden).

[8] = serum deprived medium with IFN-γ/TNF-α/IL-1β

| Substance | cell survival (MTT) (hamster HIT-T15 β-cells; serum deprived medium alone) | cell survival (MTT) (hamster HIT-T15 β-cells; [8]) | binding to the UAG receptor [1] | insulin secretion (human pancreatic islets [3]) | binding to the UAG receptor [4] | cell survival (MTT) (INS-1E rat β-cells; serum deprived medium alone) | cell survival (MTT) (INS-1E rat β-cells; [8]) | further results |
| --- | --- | --- | --- | --- | --- | --- | --- | --- |
| GSSFLSPEHQRVQQ [UAG (1-14)] | significantly increased cell viability; also recorded: potently increased cell survival | significantly increased cell viability; also recorded: potently increased cell survival | recognized and bound | significantly increased insulin secretion both in the absence and presence of glucose | recognized and bound | potently increased cell survival | potently increased cell survival | glucose-induced insulin secretion (HIT-T15 β-cells [2]): significantly increased glucose-induced insulin secretion; cell survival (MTT) (human pancreatic islets [5]; serum deprived medium with IFN-γ/TNF-α/IL-1β (5 ng/ml each)): prevented cell death at 100 nM |
| GSSFLSPEHQRVQQRKES [UAG (1-18)] | significantly increased cell viability; also recorded: potently increased cell survival | significantly increased cell viability; also recorded: potently increased cell survival |  | significant effect with 7.5 mM glucose |  | potently increased cell survival | potently increased cell survival | cell survival (MTT) (human pancreatic islets [5]; serum deprived medium alone): significantly increased cell survival at 1 nM and 10 nM |
| SPEHQRVQ [UAG (6-13), Ser-Pro-Glu-His-Gln-Arg-Val-Gln] |  | potently inhibited cytokine-induced cell death; also recorded: strongly effective in increasing survival | highest binding activity |  | highest binding activity |  |  | increase of cell survival (hamster HIT-T15 β-cells; 1 nM): ≈ 18%; increase of cell survival (hamster HIT-T15 β-cells; 100 nM): ≈ 30%; animal survival rate ([6]; 30 nmol/l (STZ alone ≈52%)): ≈ 71%; animal survival rate ([6]; 100 nmol/l (STZ alone ≈52%)): 89%; reduction of plasma glucose vs. STZ group ([6]; day 70, 30 nmol/l): 31%; reduction of plasma glucose vs. STZ group ([6]; day 70, 100 nmol/l): 14%; plasma insulin levels ([6]; day 70, STZ-treated rats, UAG (6-13) at both concentrations): increasing insulin levels; antiapoptotic effect (cytokine-induced apoptosis) (HIT-T15 β-cells [7]; 24 h serum-free medium with IFN-γ/TNF-α/IL-1β, 1, 10, 100 nM): significantly reduced cytokine-induced apoptosis; also recorded: strongest antiapoptotic effect; cell number and morphology with respect to cytokine condition (HIT-T15 β-cells [7]; cytokine-treated, data not shown): increased the number of cells, induced cell enlargement and small islets formation; gonadal fat weight over the period of treatment (ob/ob mice; mouse, in vivo): did not cause an increase in gonadal fat weight; decrease of gonadal fat pad weight relative to saline treated controls (ob/ob mice; period of treatment (4 weeks), trend p<0.06): approximately 7%; suppression of fasting glucose concentrations from saline treated controls (ob/ob mice; week 4): This effect remained at week 4; fed plasma glucose levels relative to saline controls (ob/ob mice; weeks 2 and 4, no statistically significant effects (RM-ANOVA)): consistent suppressive effect |
| exendin-4 [reference compound] |  |  |  | significantly increased insulin secretion both in the absence and presence of glucose |  |  |  |  |
